pEC50, pIC50: −log10 of the molar value.
Assays:
Rattus norvegicus [1] = assay: Antidiabetic activity in Goto Kakizaki rats assessed as inhibition of blood glucose AUC at 0.3 mg/kg, po pretreated for 1 hr followed by dextrose challenge measured after 20 to 60 mins by OGTT method relative to control; type: functional
[2] = target: T1, Free fatty acid receptor 1 (Homo sapiens, UniProt O14842); assay: Agonist activity at recombinant human GPR40 expressed in HEK293 cells assessed as increase in IP1 accumulation measured after 60 mins in presence of 100% human serum by HTRF assay; type: functional, cell-based
T1 sequence (O14842 whole entry): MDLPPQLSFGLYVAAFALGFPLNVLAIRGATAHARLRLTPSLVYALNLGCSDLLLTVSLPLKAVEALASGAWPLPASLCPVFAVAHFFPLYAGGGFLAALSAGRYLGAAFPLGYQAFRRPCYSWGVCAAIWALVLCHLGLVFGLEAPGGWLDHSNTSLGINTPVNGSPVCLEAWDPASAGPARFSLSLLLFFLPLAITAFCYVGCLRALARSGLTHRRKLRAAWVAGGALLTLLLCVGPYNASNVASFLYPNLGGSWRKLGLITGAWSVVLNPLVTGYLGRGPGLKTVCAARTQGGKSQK

Rattus norvegicus [3] = assay: Antidiabetic activity in Sprague-Dawley rat assessed as inhibition of blood glucose AUC at 3 mg/kg, po treated prior to dextrose challenge and measured after 20 to 60 mins by IPGTT relative to control; type: functional; details: Rattus norvegicus, Sprague-Dawley, po
[4] = target: T1, Free fatty acid receptor 1; assay: Agonist activity at recombinant human GPR40 expressed in HEK293 cells assessed as increase in IP1 accumulation measured after 60 mins by HTRF assay relative to AM-1638; type: functional, cell-based
[5] = target: T1, Free fatty acid receptor 1; assay: Agonist activity at recombinant human GPR40 expressed in HEK293 cells assessed as increase in IP1 accumulation measured after 60 mins in presence of 100% human serum by HTRF assay relative to AM-1638; type: functional, cell-based
[6] = target: Free fatty acid receptor 1 (Rattus norvegicus, UniProt Q8K3T4); assay: Agonist activity at recombinant rat GPR40 expressed in CHOK1 cells assessed as increase in IP1 accumulation measured after 60 mins by HTRF assay; type: functional, cell-based
Sequence of Free fatty acid receptor 1 (Rattus norvegicus, UniProt Q8K3T4) (Q8K3T4 whole entry): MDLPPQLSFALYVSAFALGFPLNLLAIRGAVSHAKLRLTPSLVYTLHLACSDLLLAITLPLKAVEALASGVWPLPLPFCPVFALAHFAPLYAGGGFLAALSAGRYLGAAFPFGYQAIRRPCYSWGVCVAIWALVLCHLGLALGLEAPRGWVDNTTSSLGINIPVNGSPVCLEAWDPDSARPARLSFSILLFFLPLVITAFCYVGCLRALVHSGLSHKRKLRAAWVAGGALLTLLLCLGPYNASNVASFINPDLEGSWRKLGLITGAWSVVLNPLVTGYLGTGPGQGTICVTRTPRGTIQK

[7] = Fraction unbound in Wistar-Han rat plasma at 1 mg/kg, iv or 2 mg/kg, po administered as single dose; type: ADME, organism-based
[8] = Clearance in Wistar-Han rat at 1 mg/kg, iv or 2 mg/kg, po administered as single dose; type: ADME, organism-based; details: in vivo
[9] = Volume of distribution at steady state in Wistar-Han rat at 1 mg/kg, iv or 2 mg/kg, po administered as single dose; type: ADME, organism-based; details: in vivo, read-out: Vdss
[10] = Effective half life in Wistar-Han rat at 1 mg/kg, iv or 2 mg/kg, po administered as single dose; type: ADME, organism-based; details: in vivo, read-out: t1/2eff (converted)
[11] = Oral bioavailability in Wistar-Han rat at 2 mg/kg administered as single dose; type: ADME, organism-based; details: in vivo
Rattus norvegicus [12] = assay: Antidiabetic activity in Goto Kakizaki rats assessed as inhibition of blood glucose AUC at 10 mg/kg, po pretreated for 1 hr followed by dextrose challenge measured after 20 to 60 mins by OGTT method relative to control; type: functional
Rattus norvegicus [13] = assay: Antidiabetic activity in Goto Kakizaki rats assessed as inhibition of blood glucose AUC at 30 mg/kg, po pretreated for 1 hr followed by dextrose challenge measured after 20 to 60 mins by OGTT method relative to control; type: functional
Rattus norvegicus [14] = assay: Antidiabetic activity in Goto Kakizaki rats assessed as plasma concentration required for reduction in blood glucose excursion at 0.3 mg/kg, po pretreated for 1 hr followed by dextrose challenge measured 3 hrs post dose by OGTT; type: functional, organism-based
Rattus norvegicus [15] = assay: Antidiabetic activity in Goto Kakizaki rats assessed as plasma concentration required for reduction in blood glucose excursion at 1 mg/kg, po pretreated for 1 hr followed by dextrose challenge measured 3 hrs post dose by OGTT; type: functional, organism-based
Rattus norvegicus [16] = assay: Antidiabetic activity in Goto Kakizaki rats assessed as plasma concentration required for reduction in blood glucose excursion at 3 mg/kg, po pretreated for 1 hr followed by dextrose challenge measured 3 hrs post dose by OGTT; type: functional, organism-based
Bile salt export pump = Bile salt export pump (Homo sapiens, UniProt O95342); assay: Inhibition of human BSEP expressed in baculovirus infected Sf9 insect cell membrane vesicles assessed as reduction in ATP-dependent [3H]-taurocholic acid uptake; type: ADME
Sequence of Bile salt export pump (O95342 whole entry): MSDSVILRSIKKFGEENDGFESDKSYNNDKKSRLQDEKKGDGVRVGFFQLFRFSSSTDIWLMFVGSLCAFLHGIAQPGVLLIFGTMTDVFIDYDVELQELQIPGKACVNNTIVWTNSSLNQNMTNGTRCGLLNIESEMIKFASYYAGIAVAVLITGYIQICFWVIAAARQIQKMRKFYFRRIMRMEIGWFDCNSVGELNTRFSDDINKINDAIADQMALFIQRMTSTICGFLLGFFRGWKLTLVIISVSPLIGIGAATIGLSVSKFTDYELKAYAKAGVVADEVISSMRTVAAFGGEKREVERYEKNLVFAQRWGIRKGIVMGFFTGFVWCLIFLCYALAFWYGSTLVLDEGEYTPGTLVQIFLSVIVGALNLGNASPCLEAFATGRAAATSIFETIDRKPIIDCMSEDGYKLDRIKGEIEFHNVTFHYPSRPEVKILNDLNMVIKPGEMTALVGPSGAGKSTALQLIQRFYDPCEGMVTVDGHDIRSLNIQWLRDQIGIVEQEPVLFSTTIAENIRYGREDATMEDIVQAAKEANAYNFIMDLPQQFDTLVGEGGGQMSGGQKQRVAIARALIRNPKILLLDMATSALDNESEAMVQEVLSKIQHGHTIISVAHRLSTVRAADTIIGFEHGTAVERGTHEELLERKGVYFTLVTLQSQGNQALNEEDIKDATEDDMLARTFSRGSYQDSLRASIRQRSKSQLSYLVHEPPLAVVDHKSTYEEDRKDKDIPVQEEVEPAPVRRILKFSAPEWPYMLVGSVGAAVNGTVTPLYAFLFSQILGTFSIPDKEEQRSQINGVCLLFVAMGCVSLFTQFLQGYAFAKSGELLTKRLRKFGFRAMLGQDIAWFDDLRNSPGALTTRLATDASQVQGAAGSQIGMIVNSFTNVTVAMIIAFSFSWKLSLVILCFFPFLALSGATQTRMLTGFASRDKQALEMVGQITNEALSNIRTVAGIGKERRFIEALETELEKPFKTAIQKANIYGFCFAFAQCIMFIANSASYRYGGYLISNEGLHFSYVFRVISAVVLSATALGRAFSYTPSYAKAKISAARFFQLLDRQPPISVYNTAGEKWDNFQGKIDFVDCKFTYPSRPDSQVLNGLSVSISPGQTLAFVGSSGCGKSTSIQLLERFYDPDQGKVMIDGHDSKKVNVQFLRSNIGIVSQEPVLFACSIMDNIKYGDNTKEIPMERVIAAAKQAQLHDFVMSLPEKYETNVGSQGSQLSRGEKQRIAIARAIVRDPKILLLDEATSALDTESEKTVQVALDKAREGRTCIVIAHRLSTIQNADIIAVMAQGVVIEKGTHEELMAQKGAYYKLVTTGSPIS

[17] = Fraction unbound in Beagle dog plasma at 1 mg/kg, iv or 2 mg/kg, po administered as single dose; type: ADME, organism-based, Canis lupus familiaris
[18] = Effective half life in Beagle dog at 1 mg/kg, iv or 2 mg/kg, po administered as single dose; type: ADME, organism-based, Canis lupus familiaris; details: in vivo, read-out: t1/2eff (converted)
[19] = Fraction unbound in rhesus monkey plasma at 1 mg/kg, iv or 2 mg/kg, po administered as single dose; type: ADME, organism-based, Macaca mulatta
[20] = Clearance in rhesus monkey at 1 mg/kg, iv or 2 mg/kg, po administered as single dose; type: ADME, organism-based, Macaca mulatta; details: in vivo
[21] = Volume of distribution at steady state in rhesus monkey at 1 mg/kg, iv or 2 mg/kg, po administered as single dose; type: ADME, organism-based, Macaca mulatta; details: in vivo, read-out: Vdss
[22] = Effective half life in rhesus monkey at 1 mg/kg, iv or 2 mg/kg, po administered as single dose; type: ADME, organism-based, Macaca mulatta; details: in vivo, read-out: t1/2eff (converted)
[23] = Oral bioavailability in rhesus monkey at 2 mg/kg administered as single dose; type: ADME, organism-based, Macaca mulatta; details: in vivo
[24] = Intrinsic clearance in Beagle dog hepatocytes; type: ADME, cell-based, Canis lupus familiaris, Hepatocyte; details: read-out: CLH
[25] = Drug metabolism in human hepatocytes assessed as phenol metabolite formation; type: ADME, cell-based, Hepatocyte
[26] = AUC (0 to 24 hrs) in Wistar rat at 200 mg/kg administered once daily for 4 days; type: ADME, organism-based; parameters: dose 200 mg/kg, time < 24 hr; details: in vivo
[27] = Cmax in Wistar rat at 200 mg/kg administered once daily for 4 days; type: ADME, organism-based; parameters: dose 200 mg/kg; details: in vivo
[28] = Tmax in Wistar rat at 200 mg/kg administered once daily for 4 days; type: ADME, organism-based; details: in vivo
[29] = AUC (0 to 24 hrs) in Wistar rat at 750 mg/kg administered once daily for 4 days; type: ADME, organism-based; parameters: dose 750 mg/kg, time < 24 hr; details: in vivo
Rattus norvegicus [30] = assay: Toxicity in Wistar rat assessed as decrease in body weight at 750 mg/kg administered once daily for 4 days relative to control; type: organism-based; parameters: scale not given: the % may be the effect or the level left; details: in vivo, 96 h
Rattus norvegicus [31] = assay: Toxicity in Wistar rat assessed as mortality at 200 to 750 mg/kg administered once daily for 4 days; type: organism-based; details: in vivo, 96 h
Rattus norvegicus [32] = assay: Toxicity in Wistar rat assessed as increase in liver weight at 200 to 750 mg/kg administered once daily for 4 days; type: organism-based; details: in vivo, 96 h
Rattus norvegicus [33] = assay: Toxicity in Wistar rat assessed as change in functional observational battery at 200 to 750 mg/kg administered once daily for 4 days; type: organism-based; details: in vivo, 96 h
[34] = Lipophilicity, log D of the compound at pH 7 at 100 uM by HPLC method; type: physicochemical; details: buffer
[35] = target: T2, Free fatty acid receptor 4 (Homo sapiens, UniProt Q5NUL3); assay: Agonist activity at GPR120 (unknown origin); type: functional
T2 sequence (Q5NUL3 whole entry): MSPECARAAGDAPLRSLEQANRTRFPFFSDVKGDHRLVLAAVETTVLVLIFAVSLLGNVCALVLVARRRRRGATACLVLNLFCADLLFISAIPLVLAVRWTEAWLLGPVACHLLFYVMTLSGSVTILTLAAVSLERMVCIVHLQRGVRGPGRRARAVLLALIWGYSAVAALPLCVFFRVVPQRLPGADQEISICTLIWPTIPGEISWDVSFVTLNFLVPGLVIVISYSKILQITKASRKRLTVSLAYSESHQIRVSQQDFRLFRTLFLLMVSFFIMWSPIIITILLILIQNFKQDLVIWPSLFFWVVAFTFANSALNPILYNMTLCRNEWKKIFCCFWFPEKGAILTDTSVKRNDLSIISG

Structure (SMILES): COc1cc(-c2ccc([C@@H]3CCc4ccc([C@H](C5CC5)[C@H](C)C(=O)[O-])cc4O3)c(F)c2)ccn1.[Na+]
- inhibition in vivo at 0.3 mg/kg (Rattus norvegicus [1]): 63%
- pEC50 [2]: 7.46
- inhibition in vivo at 3 mg/kg (Rattus norvegicus [3]): 103%
- max activation [4]: > 179%
- max activation [5]: > 179%
- pEC50 [6]: 9.31
- fraction unbound [7]: 0.0002
- clearance [8]: 2.8 mL/min/kg
- Vd [9]: 0.48 L/kg
- half-life [10]: 222 min
- bioavailability [11]: 81%
- inhibition in vivo at 10 mg/kg (Rattus norvegicus [12]): 118%
- inhibition in vivo at 30 mg/kg (Rattus norvegicus [13]): 114%
- Cp (Rattus norvegicus [14]): 0.25 µM
- Cp (Rattus norvegicus [15]): 0.9 µM
- Cp (Rattus norvegicus [16]): 2.2 µM
- pIC50 (Bile salt export pump): 5.46
- fraction unbound [17]: 0.015
- half-life [18]: 414 min
- fraction unbound [19]: 0.00071
- clearance [20]: 0.72 mL/min/kg
- Vd [21]: 0.48 L/kg
- half-life [22]: 600 min
- bioavailability [23]: 64%
- CLint scaled [24]: 126 mL/min/kg
- Drug metabolism [25]: Metabolite_Notdetected
- AUC at 24 h [26]: 2310 µM·h
- Cmax [27]: 223 µM
- Tmax [28]: 1 to 2 h
- AUC at 24 h [29]: 7350 µM·h
- Activity (Rattus norvegicus [30]): 90%
- Activity (Rattus norvegicus [31]): Non-Toxic
- Activity (Rattus norvegicus [32]): Non-Toxic
- Activity (Rattus norvegicus [33]): Non-Toxic
- logD at 100 µM [34]: 2.51
- pEC50 [35]: < 5.00

— ChEMBL document CHEMBL4145665, “Structure-Activity Relationship of Novel and Selective Biaryl-Chroman GPR40 AgoPAMs” (ACS Med Chem Lett, 2018)
